Experimental data reported in patent US9518046B2 (Calitor Sciences, LLC, priority 2015, dated 2016).

Experiment: Pharmacokinetics after intravenous and oral administration in rats
Format: in vivo
Conditions: for CL/F / bioavailability: Rats; for CL/F: iv dosing, dose 1 mg/kg (0.5 for Ex. 1, 10, 11, 35; 0.48 for Ex. 24); for AUC(0-t) / half-life / Vd / bioavailability: rat, plasma; for AUC(0-t) / half-life / Vd: iv, 1 mg/kg; for Vd: read-out: Vss; for bioavailability: oral (p.o.) generally 5 or 10 mg/kg versus iv dosing
Description: The LC/MS/MS system used in the analysis consists of an Agilent 1200 Series vacuum degasser, binary pump, well-plate autosampler, thermostatted column compartment, the Agilent G6430 Triple Quadrupole Mass Spectrometer with an electrosprayionization (ESI) source. Quantitative analysis was carried out using MRM mode. The parameters for MRM transitions are in the Table A.
An Agilent XDB-C18, 2.1×30 mm, 3.5 M column was used for the analysis. 5 L of the samples were injected. Analysis condition: The mobile phase was 0.1% formic acid in water (A) and 0.1% formic acid in methanol (B). The flow rate was 0.4 mL/min. And the gradient of Mobile phase was in the Table B.
Alternatively, an Agilent 6330 series LC/MS/MS spectrometer equipped with G1312A binary pumps, a G1367A autosampler and a G1314C UV detector were used in the analysis. An ESI source was used on the LC/MS/MS spectrometer. The analysis was done in positive ion mode as appropriate and the MRM transition for each analyte was optimized using standard solution. A Capcell MP-C18 100×4.6 mm I.D., […] column (Phenomenex, Torrance, Calif., USA) was used during the analysis. The mobile phase was 5 mM ammonia acetate, 0.1% MeOH in water (A): 5 mM ammonia acetate, 0.1% MeOH in acetonitrile (B) (70:30, v/v). The flow rate was 0.6 mL/min. Column was maintained at ambient temperature. 20 μL of the samples were injected.
The compounds disclosed herein are assessed in pharmacokinetic studies in mice, rats, dogs or monkeys. The compounds are administered as a water solution, 2% HPMC+1% TWEEN®80 in water solution, 5% DMSO+5% solutol in saline, 4% MC suspension or capsule. For the intravenous administration, the animals are generally given at 1 or 2 mg/kg dose. For the oral (p.o.) dosing, mice and rats are generally given 5 or 10 mg/kg dose, and dogs and monkeys are generally given 10 mg/kg dose. The blood samples (0.3 mL) are drawn at 0.25, 0.5, 1.0, 2.0, 3.0, 4.0, 6.0, 8.0, 12 and 24 h time points or 0.083, 0.25, 0.5, 1.0, 2.0, 4.0, 6.0, 8.0 and 24 h time points and centrifuged at 3,000 or 4000 rpm for 2 to 10 min. The plasma solutions are collected, stored at −20° C. or −70° C. until analyzed by LC/MS/MS as described above.

Compound | CL/F | also measured
CC[C@H](Nc1ncnc(N)c1-c1nnc(C)o1)c1nc2cccc(Cl)c2c(=O)n1-c1ccccc1C [Ex. 35, (S)-2-(1-((6-amino-5-(5-methyl-1,3,4-oxadiazol-2-yl)pyrimidin-4-yl)-amino)propyl)-5-chloro-3-(o-tolyl)quinazolin-4(3H)-one] | 53 mL/min/kg | –
CC[C@H](Nc1ncnc(N)c1-c1nnc(C)o1)c1nc2cccc(C)c2c(=O)n1-c1ccccc1 [Ex. 38, (S)-2-(1-((6-amino-5-(5-methyl-1,3,4-oxadiazol-2-yl)pyrimidin-4-yl)amino)-propyl)-5-methyl-3-phenylquinazolin-4(3H)-one] | 71.3 mL/min/kg | –
CC[C@H](Nc1ncnc(N)c1-c1nnc(C)o1)c1nc2cccc(F)c2c(=O)n1-c1ccccc1 [Ex. 40, (S)-2-(1-((6-amino-5-(5-methyl-1,3,4-oxadiazol-2-yl)pyrimidin-4-yl)amino)-propyl)-5-fluoro-3-phenylquinazolin-4(3H)-one] | 57.3 mL/min/kg | –
Cc1noc(-c2c(N)ncnc2N[C@@H](C)c2nc3cccc(Cl)c3c(=O)n2C2CC2)n1 [Ex. 41, (S)-2-(1-((6-amino-5-(3-methyl-1,2,4-oxadiazol-5-yl)pyrimidin-4-yl)amino)-ethyl)-5-chloro-3-cyclopropylquinazolin-4(3H)-one] | 84.3 mL/min/kg | –
CC[C@H](Nc1ncnc(N)c1-c1ccon1)c1nc2cccc(F)c2c(=O)n1C1CC1 [Ex. 48, (S)-2-(1-((6-amino-5-(isoxazol-3-yl)pyrimidin-4-yl)amino)propyl)-3-cyclopropyl-5-fluoroquinazolin-4(3H)-one] | 67.3 mL/min/kg | –
CC[C@@H](Nc1ncnc(N)c1-c1ccon1)c1nc2cccc(Cl)c2c(=O)n1C1CC1 [Ex. 49, (R)-2-(1-((6-amino-5-(isoxazol-3-yl)pyrimidin-4-yl)amino)propyl)-5-chloro-3-cyclopropylquinazolin-4(3H)-one] | 85.3 mL/min/kg | –
CC[C@H](Nc1ncnc(N)c1-c1ccn(C)n1)c1nc2cccc(Cl)c2c(=O)n1C1CC1 [Ex. 51, (S)-2-(1-((6-amino-5-(1-methyl-1H-pyrazol-3-yl)pyrimidin-4-yl)amino)propyl)-5-chloro-3-cyclopropylquinazolin-4(3H)-one] | 27.3 mL/min/kg | –
CC[C@H](Nc1ncnc(N)c1-c1ncn(C)n1)c1nc2cccc(Cl)c2c(=O)n1C1CC1 [Ex. 53, (S)-2-(1-((6-amino-5-(1-methyl-1H-1,2,4-triazol-3-yl)pyrimidin-4-yl)amino)-propyl)-5-chloro-3-cyclopropylquinazolin-4(3H)-one] | 38.2 mL/min/kg | –
CCc1noc(-c2c(N)ncnc2N[C@@H](CC)c2nc3cccc(Cl)c3c(=O)n2C2CC2)n1 [Ex. 56, (S)-2-(1-((6-amino-5-(3-ethyl-1,2,4-oxadiazol-5-yl)pyrimidin-4-yl)amino)-propyl)-5-chloro-3-cyclopropylquinazolin-4(3H)-one] | 74.7 mL/min/kg | –
CC[C@H](Nc1ncnc(N)c1-c1nc(C)no1)c1nc2cccc(Cl)c2c(=O)n1[C@@H]1C[C@@H]1F [Ex. 62] | 71.8 mL/min/kg | –
CC[C@H](Nc1ncnc(N)c1-c1nnc(C)o1)c1nc2cccc(-c3cnn(C)c3)c2c(=O)n1-c1ccccc1 [Ex. 73, (S)-2-(1-((6-amino-5-(5-methyl-1,3,4-oxadiazol-2-yl)pyrimidin-4-yl)amino)propyl)-5-(1-methyl-1H-pyrazol-4-yl)-3-phenylquinazolin-4(3H)-one] | 20.7 mL/min/kg | AUC(0-t): 807 ng·h/mL; half-life: 0.85 h; Vd: 1.44 L/kg; bioavailability: 104%
C[C@H](Nc1ncnc(N)c1-c1nnn(C)n1)c1nc2cccc(-c3cnn(C)c3)c2c(=O)n1C1CC1 [Ex. 75, (S)-2-(1-((6-amino-5-(2-methyl-2H-tetrazol-5-yl)pyrimidin-4-yl)amino)ethyl)-3-cyclopropyl-5-(1-methyl-1H-pyrazol-4-yl)quinazolin-4(3H)-one] | 19.8 mL/min/kg | AUC(0-t): 841 ng·h/mL; half-life: 1.41 h; Vd: 2.01 L/kg; bioavailability: 72.5%

Continued, in another order:

CL/F | Compound | also measured
67.5 mL/min/kg | CC[C@H](Nc1ncnc(N)c1-c1nc(C)no1)c1nc2cccc(C)c2c(=O)n1-c1ccccc1 [Ex. 37, (S)-2-(1-((6-amino-5-(3-methyl-1,2,4-oxadiazol-5-yl)pyrimidin-4-yl)amino)-propyl)-5-methyl-3-phenylquinazolin-4(3H)-one] | –
51.8 mL/min/kg | CC[C@H](Nc1ncnc(N)c1-c1nc(C)no1)c1nc2cccc(F)c2c(=O)n1-c1ccccc1 [Ex. 39, (S)-2-(1-((6-amino-5-(3-methyl-1,2,4-oxadiazol-5-yl)pyrimidin-4-yl)amino)-propyl)-5-fluoro-3-phenylquinazolin-4(3H)-one] | –
82 mL/min/kg | C[C@H](Nc1ncnc(N)c1-c1nnn(C)n1)c1nc2cccc(Cl)c2c(=O)n1C1CC1 [Ex. 42, (S)-2-(1-((6-amino-5-(2-methyl-2H-tetrazol-5-yl)pyrimidin-4-yl)amino)ethyl)-5-chloro-3-cyclopropylquinazolin-4(3H)-one] | –
36.8 mL/min/kg | CC[C@H](Nc1ncnc(N)c1-c1nnn(C)n1)c1nc2cccc(F)c2c(=O)n1-c1ccccc1 [Ex. 43, (S)-2-(1-((6-amino-5-(2-methyl-2H-tetrazol-5-yl)pyrimidin-4-yl)amino)-propyl)-5-fluoro-3-phenylquinazolin-4(3H)-one] | –
73.7 mL/min/kg | C[C@H](Nc1ncnc(N)c1-c1ncn(C)n1)c1nc2cccc(Cl)c2c(=O)n1C1CC1 [Ex. 44, (S)-2-(1-((6-amino-5-(1-methyl-1H-1,2,4-triazol-3-yl)pyrimidin-4-yl)amino)-ethyl)-5-chloro-3-cyclopropylquinazolin-4(3H)-one] | –
55.8 mL/min/kg | CC[C@H](Nc1ncnc(N)c1-c1nc(COC)n(C)n1)c1nc2cccc(Cl)c2c(=O)n1C1CC1 [Ex. 46] | –
86.7 mL/min/kg | CC[C@H](Nc1ncnc(N)c1-c1ncn(C)n1)c1nc2cccc(Cl)c2c(=O)n1-c1ccc(F)cc1 [Ex. 50, (S)-2-(1-((6-amino-5-(1-methyl-1H-1,2,4-triazol-3-yl)pyrimidin-4-yl)amino)propyl)-5-chloro-3-(4-fluorophenyl)quinazolin-4(3H)-one] | –
85.7 mL/min/kg | CC[C@H](Nc1ncnc(N)c1-c1nc(C)co1)c1nc2cccc(Cl)c2c(=O)n1C1CC1 [Ex. 52, (S)-2-(1-((6-amino-5-(4-methyloxazol-2-yl)pyrimidin-4-yl)amino)propyl)-5-chloro-3-cyclopropylquinazolin-4(3H)-one] | –
83 mL/min/kg | CC(C)c1noc(-c2c(N)ncnc2N[C@@H](C)c2nc3cccc(Cl)c3c(=O)n2C2CC2)n1 [Ex. 57, (S)-2-(1-((6-amino-5-(3-isopropyl-1,2,4-oxadiazol-5-yl)pyrimidin-4-yl)amino)-ethyl)-5-chloro-3-cyclopropylquinazolin-4(3H)-one] | –
26.2 mL/min/kg | CC[C@H](Nc1ncnc(N)c1-c1nc(C(N)=O)n(C)n1)c1nc2cccc(Cl)c2c(=O)n1C1CC1 [Ex. 58, (S)-3-(4-amino-6-((1-(5-chloro-3-cyclopropyl-4-oxo-3,4-dihydroquinazolin-2-yl)propyl)amino)pyrimidin-5-yl)-1-methyl-1H-1,2,4-triazole-5-carboxamide] | –
73.7 mL/min/kg | CC(C)c1nc(-c2c(N)ncnc2N[C@@H](C)c2nc3cccc(Cl)c3c(=O)n2C2CC2)no1 [Ex. 59, (S)-2-(1-((6-amino-5-(5-isopropyl-1,2,4-oxadiazol-3-yl)pyrimidin-4-yl)amino)ethyl)-5-chloro-3-cyclopropylquinazolin-4(3H)-one] | –
97.5 mL/min/kg | CCc1nc(-c2c(N)ncnc2N[C@@H](C)c2nc3cccc(Cl)c3c(=O)n2C2CC2)no1 [Ex. 61, (S)-2-(1-((6-amino-5-(5-ethyl-1,2,4-oxadiazol-3-yl)pyrimidin-4-yl)amino)ethyl)-5-chloro-3-cyclopropylquinazolin-4(3H)-one] | –
14.3 mL/min/kg | CC[C@H](Nc1ncnc(N)c1-c1nc(C)no1)c1nc2cccc(-c3cnn(C)c3)c2c(=O)n1-c1ccccc1 [Ex. 74, (S)-2-(1-((6-amino-5-(3-methyl-1,2,4-oxadiazol-5-yl)pyrimidin-4-yl)amino)propyl)-5-(1-methyl-1H-pyrazol-4-yl)-3-phenylquinazolin-4(3H)-one] | AUC(0-t): 1120 ng·h/mL; half-life: 1.56 h; Vd: 1.83 L/kg; bioavailability: 105%
